US8378104B2 (OSI Pharmaceuticals, LLC, priority 2010, dated 2013)
Structures can show the parent of a compound that is named as a salt. Where two headings read alike, the source gives them in different places.

Columns and labels:
[1] = target: T1, TAK1-TAB1 fusion protein (Homo sapiens, UniProt O43318); assay: TAK1 biochemical assay (AlphaScreen, GST-MAP2K7 substrate)
T1 construct: purchased Carna
T1 sequence (O43318 with tags, fused parts or gaps limits assumed): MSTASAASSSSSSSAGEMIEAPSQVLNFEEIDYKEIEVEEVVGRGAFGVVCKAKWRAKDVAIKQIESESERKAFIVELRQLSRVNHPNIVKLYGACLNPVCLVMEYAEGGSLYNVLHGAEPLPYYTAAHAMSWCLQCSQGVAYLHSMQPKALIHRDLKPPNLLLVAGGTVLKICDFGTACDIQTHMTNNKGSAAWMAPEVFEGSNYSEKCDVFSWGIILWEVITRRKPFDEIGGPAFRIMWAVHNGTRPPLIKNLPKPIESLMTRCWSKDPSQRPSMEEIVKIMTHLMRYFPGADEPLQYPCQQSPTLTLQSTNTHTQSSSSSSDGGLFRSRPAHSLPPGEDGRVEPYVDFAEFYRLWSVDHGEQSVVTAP

[2] = system: pJNK in HCT-116 cells; assay: Phospho-JNK (Thr183/Tyr185) Meso Scale ELISA assay, TNFα-stimulated HCT-116 cells; assay type: cell-based; details: Homo sapiens, read-out: mean HCT-116 pJNK ELISA IC50 (Col. B)
Protocol: Detailed below are ELISA assays for pJNK and p38, and a TAK1 biochemical assay. […] In Table 1, Col.
Phospho-JNK (Thr183/Tyr185) Meso Scale ELISA Assay
• 1. Plate HCT-116 cells at 25,000 per well in 100 uL in 96 well clear dishes in normal growth medium. Day 2: • 1. Aspirate medium and replace with 90 μl reduced serum growth medium (1% FCS), incubate for 2 hours at 37° C. • 2. Make drugs at 10× in reduced serum medium and add 10 uL per well. • 3. Incubate at 37° C. for 4 hrs. • 4. Bring capture plates to room temperature. • 5. Block with 150 μl Blocking Solution (provided with kit) (600 mg Blocker A into 20 mL 1× Wash Buffer per plate) at room temperature with shaking. • 6. Wash plates 4× with 200 μl 1× wash buffer (10× provided with kit) before transferring lysates. • 7. Dilute TNFα to […] in reduced serum medium (this makes a 10× working stock). • 8. Add 10 μl TNFα to all wells except negative control wells, final concentration is 10 ng/mL. • 9. Incubate at 37° C. for 10 minutes. • 10. Remove medium by flicking into sink • 11. Wash cells with 100 uL ice cold PBS. • 12. Remove PBS by flicking into sink and patting on paper towels. • 13. Lyse cells in 50 μl ice cold 1× Complete Lysis Buffer plus Phosphatase and Protease inhibitors (all provided with kit) (10 mL Tris Lysis Buffer+200 μl Protease inhibitor solution+100 μl Phosphatase inhibitor I+100 μl Phosphatase inhibitor II). • 14. Incubate with shaking at 4° C. for 30 minutes. • 15. Transfer 45 μl to capture plate, cover with adhesive cover, and incubate at 4° C. over night with shaking. • Day 3: • 1. Wash plates 4× with 200 μl 1× wash buffer (10× provided with kit). • 2. […] Incubate at room temperature with shaking for 1 hour. • 4. Wash 4× with 200 μl 1× Wash Buffer. • 5. […] Read on Sector Imager. Phospho-p38 Meso Scale ELISA Assay Day 1: • 1. Plate HCT-116 cells at 25,000 per well in 100 uL in 96 well clear dishes in normal growth medium. zday 2: • 1. Aspirate medium and replace with 90 μl reduced serum growth medium (1% FCS), incubate for 2 hours at 37° C. • 2. Make drugs at 10× in reduced serum medium and add 10 uL per well. • 3. Incubate at 37° C. for 4 hrs. • 4. Bring capture plates to room temperature. • 5. Block with 150 μl Blocking Solution (provided with kit) (600 mg Blocker A into 20 mL 1× Wash Buffer per plate) at room temperature with shaking. • 6. Wash plates 4× with 200 μl 1× wash buffer (10× provided with kit) before transferring lysates. • 7. Dilute TNFα to […] in reduced serum medium (this makes a 10× working stock). • 8. Add 10 μl TNFα to all wells except negative control wells, final concentration is 10 ng/mL. • 9. Incubate at 37° C. for 10 minutes. • 10. Remove medium by flicking into sink • 11. Wash cells with 100 uL ice cold PBS. • 12. Remove PBS by flicking into sink and patting on paper towels. • 13. Lyse cells in 50 μl ice cold 1× Complete Lysis Buffer plus phosphatase and protease inhibitors (all provided with kit) (10 mL Tris Lysis Buffer+200 μl Protease inhibitor solution+100 μl Phosphatase inhibitor I+100 μl Phosphatase inhibitor II). • 14. Incubate with shaking at 4° C. for 30 minutes. • 15. Dilute lysates before transferring to capture plate with 100 μl Complete p38 Lysate • Dilution Buffer (provided with kit) (10 mL of Diluent 20±200 μl Protease inhibitor solution+100 μl Phosphatase inhibitor I+100 μl Phosphatase inhibitor II). • 16. Transfer 50 μl of diluted lysates to capture plate, cover with adhesive cover, and incubate at 4° C. over night with shaking. Day 3: • 1. Wash plates 4× with 200 μl 1× wash buffer (10× provided with kit). • 2. […] Incubate at room temperature with shaking for 1 hour. • 4. Wash 4× with 200 μl 1× Wash Buffer. • 5. […] Read on Sector Imager. TAK1 Biochemical Assay

[3] = TAK1-TAB1 fusion protein, GST-MAP2K7 substrate, read-out: mean TAK1 IC50 (Col. A)

SMILES | IC50 [1, 3] [nM] | IC50 [2] [nM] | IC50 [1] [nM]
CC(=O)N1CCC(n2cc(-c3cnc(N)c4oc(-c5c(C#N)sc6cnccc56)cc34)cn2)CC1 [Example 264, 3-{4-[1-(1-acetylpiperidin-4-yl)-1H-pyrazol-4-yl]-7-aminofuro[2,3-c]pyridin-2-yl}thieno[2,3-c]pyridine-2-carbonitrile Trifluoroacetate] | 100 to 1000 | < 100 | 
CC(=O)N1CCC(n2cc(-c3cnc(N)c4oc(-c5cn(C)c6cnccc56)cc34)cn2)CC1 [Example 266, 1-(4-{4-[7-amino-2-(1-methyl-1H-pyrrolo[2,3-c]pyridin-3-yl)-furo[2,3-c]pyridin-4-yl]-pyrazol-1-yl}-piperidin-1-yl)-ethanone] | < 100 | 100 to 1000 | 
Nc1ncc(-c2cnn([C@H]3CC[C@H](O)CC3)c2)c2cc(-c3csc4cnncc34)oc12 [Example 268, trans-4-{4-[7-amino-2-(thieno[2,3-d]pyridazin-3-yl)furo[2,3-c]-pyridin-4-yl]-1H-pyrazol-1-yl}cyclohexanol bistrifluoroacetate] | < 100 | < 100 | 
N#Cc1sc2cnccc2c1-c1cc2c(-c3cnn([C@H]4CC[C@H](O)CC4)c3)cnc(N)c2o1 [Example 270, 3-{7-amino-4-[1-(trans-4-hydroxycyclohexyl)-1H-pyrazol-4-yl]furo[2,3-c]pyridin-2-yl}thieno[2,3-c]pyridine-2-carbonitrile trifluoroacetate] | 100 to 1000 | < 100 | 
CC(C)(O)C#Cc1sc2cnccc2c1-c1cc2c(-c3cnn([C@H]4CC[C@H](O)CC4)c3)cnc(N)c2o1 [Example 271, trans-4-(4-{7-amino-2-[2-(3-hydroxy-3-methylbut-1-yn-1-yl)thieno[2,3-c]pyridin-3-yl]furo[2,3-c]pyridin-4-yl}-1H-pyrazol-1-yl)cyclohexanol trifluoroacetate] | 100 to 1000 | 1000 to 10000 | 
Nc1ncc(-c2cnn([C@H]3CC[C@H](O)CC3)c2)c2cc(-c3c(F)ccc4nnsc34)oc12 [Example 272, trans-4-{4-[7-amino-2-(6-fluoro-1,2,3-benzothiadiazol-7-yl)furo[2,3-c]pyridin-4-yl]-1H-pyrazol-1-yl}cyclohexanol diformate salt] | < 100 | < 100 | 
CC(=O)N1CCC(n2cc(-c3cnc(N)c4oc(-c5c(F)ccc6nnsc56)cc34)cn2)CC1 [Example 273, 1-(4-{4-[7-amino-2-(6-fluoro-1,2,3-benzothiadiazol-7-yl)furo[2,3-c]pyridin-4-yl]-1H-pyrazol-1-yl}piperidin-1-yl)ethanone] | < 100 | 100 to 1000 | 
CNc1ncc(-c2cnn(C3CCN(C(C)=O)CC3)c2)c2cc(-c3cccc4nnsc34)oc12 [Example 278, 1-(4-{4-[2-(1,2,3-benzothiadiazol-7-yl)-7-(methylamino)furo[2,3-c]pyridin-4-yl]-1H-pyrazol-1-yl}piperidin-1-yl)ethanone] | < 100 | < 100 | 
CNc1ncc(-c2cnn([C@H]3CC[C@H](O)CC3)c2)c2cc(-c3cccc4cnsc34)oc12 [Example 282, trans-4-{4-[2-(1,2-benzothiazol-7-yl)-7-(methylamino)furo[2,3-c]pyridin-4-yl]-1H-pyrazol-1-yl}cyclohexanol] | 100 to 1000 | 100 to 1000 | 
CNc1ncc(-c2cnn([C@H]3CC[C@H](O)CC3)c2)c2cc(-c3csc4cnc(F)cc34)oc12 [Example 283, trans-4-{4-[2-(5-fluorothieno[2,3-c]pyridin-3-yl)-7-(methylamino)furo[2,3-c]pyridin-4-yl]-1H-pyrazol-1-yl}cyclohexanol] | < 100 | < 100 | 
CNc1ncc(-c2cnn([C@H]3CC[C@H](O)CC3)c2)c2cc(-c3cccc4nnsc34)oc12 [Example 284, trans-4-{4-{2-[2-(1,2,3-benzothiadiazol-7-yl)-7-(methylamino)furo[2,3-c]pyridin-4-yl]-1H-pyrazol-1-yl}cyclohexanol formate salt] | < 100 | < 100 | 
Nc1ncc(-c2cnn([C@H]3CC[C@H](O)CC3)c2)c2c(Cl)c(-c3cccc4cnsc34)oc12 [Example 285, trans-4-{4-[7-amino-2-(1,2-benzothiazol-7-yl)-3-chlorofuro[2,3-c]pyridin-4-yl]-1H-pyrazol-1-yl}cyclohexanol trifluoroacetic Acid Salt] | 100 to 1000 | 100 to 1000 | 
Nc1ncc(-c2cnn([C@H]3CC[C@H](O)CC3)c2)c2c(Cl)c(-c3cccc4nnsc34)oc12 [Example 286, trans-4-{4-[7-amino-2-(1,2,3-benzothiadiazol-7-yl)-3-chlorofuro[2,3-c]pyridin-4-yl]-1H-pyrazol-1-yl}cyclohexanol] |  | < 100 | < 100
Nc1ncc(-c2cnn([C@H]3CC[C@H](O)CC3)c2)c2c(Cl)c(-c3csc4cnccc34)oc12 [Example 287, trans-4-{4-[7-amino-3-chloro-2-(thieno[2,3-c]pyridin-3-yl)furo[2,3-c]pyridin-4-yl]-1H-pyrazol-1-yl}cyclohexanol] | 100 to 1000 | < 100 | 
Nc1ncc(-c2cnn([C@H]3CC[C@H](O)CC3)c2)c2c(Cl)c(-c3cccc4ncsc34)oc12 [Example 288, trans-4-{4-[7-amino-2-(1,3-benzothiazol-7-yl)-3-chlorofuro[2,3-c]pyridin-4-yl]-1H-pyrazol-1-yl}cyclohexanol] | < 100 | < 100 | 
CC(C)(C)OC(=O)N1[C@@H]2CC[C@H]1C[C@H](n1cc(-c3cnc(N)c4oc(-c5csc6cnccc56)cc34)cn1)C2 [Example 299, tert-butyl (3-exo)-3-{4-[7-amino-2-(thieno[2,3-c]pyridin-3-yl)furo[2,3-c]pyridin-4-yl]-1H-pyrazol-1-yl}-8-azabicyclo[3.2.1]octane-8-carboxylate] | 100 to 1000 | 100 to 1000 | 
CC(C)(C)OC(=O)N1[C@@H]2CC[C@H]1C[C@H](n1cc(-c3cnc(N)c4oc(-c5cccc6cnsc56)cc34)cn1)C2 [Example 301, tert-butyl (3-exo)-3-{4-[7-amino-2-(1,2-benzisothiazol-7-yl)furo[2,3-c]pyridin-4-yl]-1H-pyrazol-1-yl}-8-azabicyclo[3.2.1]octane-8-carboxylate] | 100 to 1000 | 100 to 1000 | 
Nc1ncc(-c2cnn(C3CCC(O)C3)c2)c2cc(-c3csc4cnccc34)oc12 (stereo not drawn) [Example 306, 3-[4-(7-amino-2-thieno[2,3-c]pyridin-3-yl-furo[2,3-c]pyridin-4-yl)-pyrazol-1-yl]-cyclopentanol] | < 100 | 100 to 1000 | 
